Experiment [1] concerns cyclophosphamide treated mice. Description: Regeneration of neutrophils in cyclophosphamide-treated mice. The experiment is classed as in vivo. The following applies: for neutrophil recovery versus saline treated mice: 5 days; for ANC after treatment was stopped: count on Day 13; for Day on which normal levels of absolute neutrophil counts (ANC) were reached: saline treated mice Day 7. The procedure: In these studies, mice were injected intraperitoneally with a sublethal dose of 220 mg/kg cyclophosphamide (Day 1). […] After 72 hours (Day 3) mice were divided into 3 groups. […] G-CSF was used at 0.04 ug/dose (4 μg/kg/day) which is the dose frequently used in published reports studying the G-CSF effects in mice and is also the equivalent dose used in cancer patients. All administrations were performed twice daily (b.i.d.) for 5 consecutive days or as indicated. Blood samples were taken from individual mice on Day 4–8, and in some experiments on Days 13 or 17. At each time pont four or five test animals were sampled. Total and differential white blood cell counts of Gimsa-stained blood smears were performed.

Experiment [2] concerns BALB/c mice. Description: Stimulation of hematopoiesis in the spleen of normal mice (splenocyte colony assay). It counts as in vivo. As to conditions: twice daily for 5 days, subcutaneous injection or oral gavage. The procedure: On the sixth day the animals were sacrificed and their spleens were excised using sterile procedures. The spleens were disrupted to produce single cell suspensions which were subsequently treated with a solution of Tris ammonium chloride (pH 7.2) to lyse erythrocytes. The resulting splenocyte populations were in a hemocytometer and resuspended at […] in Iscove's Modified Eagles medium (IMDM) supplemented with 2% heat inactivated fetal calf serum. 0.3 mL of each splenocyte solution was added to 3 mL of Methocult™GF M3434 (Stem Cell Technologies, Vancouver, BC, Canada), a methylcellulose medium containing recombinant cytokines used for colony assays of murine progenitor cells. The medium was vigorously mixed and then 1.1 mL of the mixture was placed in duplicate onto sterile 35 mm diameter culture dishes, resulting in 5×10^5 splenocytes/plate. The plated cells were incubated at 37° C. under humidified conditions in 95% air/5% CO2 for 7 days. CFU-E were enumerated as per the manufacturers specifications after 2 days, while BFU-E, CFU-GM and CFU-GEMM were enumerated after 7 days. For each mouse, the absolute CFU/spleen were calculated using the total splenocyte count determined in the hemocytometer. The data shown in FIG. 9 represents the mean±SD CFU/spleen from 3 mice in each dosing group.

Experiment [3] has as its system human bone marrow stromal cells. Description: Production of G-CSF by human bone marrow stromal cells. The experiment is classed as cell-based. As to conditions: 10^−5 M PT-100, culture media collected on day 1. How it is done:
Mononuclear cells were purified from bone marrow and cultured long-term culture medium, (Stem Cell Technologies, Inc., Vancouver, B.C.) for 2 weeks, with a single feeding of fresh medium after 1 week. […] Culture media were collected on day 1. Supernatants were assayed for human G-CSF using a Quantikine high sensitivity immuno-assay kit (R+D Systems, Minneapolis, Minn.).

Experiment [4] concerns human bone marrow CD34+ cells (committed progenitor cells). Description: 2 week semi-solid (methylcellulose) colony (CFU) assay. It counts as cell-based. The text has this: Hematopoiesis is sustained by a pool of hematopoietic stem cells (HSCs) that can self-renew and differentiate into hematopoietic progenitor cells (HPCs). HPCs are committed to specific lineages which can be identified based on their colony morphology when grown in semi-solid media in vitro, typically over a 2 week period. The colonies grown in the semi-solid colony assay are functionally defined as colony- or burst-forming units and include BFU-E and CFU-E (cells committed to the erythroid lineage), CFU-GM (cells committed to the granulocytic/monocytic lineage), BFU-MK and CFU-MK (cells committed to the megakaryocyte lineage) and CFU-GEMM (multipotent progenitors).

In experiment [5] the test system is human CD34+ cells (primitive hematopoietic progenitor cells) on stromal cell layer. The experiment is described as follows: Long-Term Culture (LTC) assay followed by semi-solid colony assay. It counts as cell-based. The text has this: An assay to evaluate the effect of a compound or of growth factors on PHPCs was first described by Dexter (Dexter T. M. et al, J. Cell. Physiol. 91:335–344 (1977)), and combines the Long-Term Culture (LTC) with the semi-solid colony assay. LTC is initiated over a pre-formed stromal cell layer which provides the necessary hematopoietic growth factors. It has been used extensively for the in vitro examination of murine and human hematopoiesis and to evaluate the ability of test compounds to generate LTC-ICs.
For the LTC assays, CD34^+ cells were isolated by positive selection from human bone marrow cells, apheresed peripheral blood or umbilical cord blood using a MAC separation system. To establish a stromal feeder layer, human bone marrow cells were cultured in Myelocult long term culture medium for 2 weeks. […] Medium and PT-100 was exchanged every three days thereafter. At the end of the culture period the culture was assayed for progenitor cells by plating in semi-solid medium (methylcellulose) supplemented with growth factors (Stem Cell Factor, GM-CSF, IL-3 and Erythropoietin).
The total number of myeloid, erythroid, blast forming and multilineage clonogeneic progenitors (colonies CFU-GM, CFU-E, BFU-E and CFU-GEMM, respectively) were determined after 14 days in methylcellulose culture.

Experiment [6] shares this test system. The following applies: cited from earlier work.
In experiment [7] the test system is human bone marrow CD34+ cells (committed progenitor cells). As to conditions: stated as previously shown; cited from earlier work.

Turning to `CC(C)[C@H](N)C(=O)N1CCC[C@H]1B(O)O` [PT-100, valine-prolineboronic acid], the “neutrophil recovery over saline” value in experiment [1] (0.1 μg/b.i.d. oral gavage, 5 consecutive days from Day 3) is “did not significantly enhance neutrophil recovery over saline”. In addition, the “neutrophil recovery versus saline treated mice” value is listed as “did not show much effect” in experiment [1] (1 μg/b.i.d. s.c.), “accelerated” in experiment [1] (5 μg/b.i.d. s.c.), “accelerated” in experiment [1] (10 μg/b.i.d. s.c.) and “accelerated” in experiment [1] (20 μg/b.i.d. s.c.). In experiment [1] (2 μg/b.i.d. by gavage for 5 days), the “ANC after treatment was stopped” value is on record as “decreased to normal counts by Day 13”. In experiment [1] (2 μg/b.i.d. by gavage, 5 consecutive days from Day 3), the “neutrophil regeneration during the treatment period, PT-100 versus G-CSF” value is reported as “stimulated neutrophil regeneration to a similar level”. Further, the “Day on which normal levels of absolute neutrophil counts (ANC) were reached” value in experiment [1] (2 μg/b.i.d. oral gavage) and in experiment [1] (5 μg/b.i.d. oral gavage) was 5 days each time. In addition, the “rate of neutrophil recovery with additional administration for 2 or 3 days” value in experiment [1] (gavage b.i.d. for 2 or 3 days starting Day 3) is “increased the rate of recovery even further”. Besides, in experiment [1] (gavage b.i.d. for 1 day starting Day 3 (5, 2 or 1 μg/b.i.d.)), the “reconstitution of neutrophils after one day of administration” value was “accelerated reconstitution of neutrophils over saline treated animals”. The “rate of neutrophil recovery or ANC with 4 or 5 days versus 3 day administration” value in experiment [1] (gavage b.i.d., total of 4 or 5 days) was “does not significantly increase”. Besides, the “effect of additional administration on Days 5, 6 and 7 on ANC” value in experiment [1] (oral gavage b.i.d.) is listed as “caused a further increase in ANC”. In addition, the “neutrophil recovery, twice daily versus once per day administration” value in experiment [1] (s.c., five day period from Day 3, both doses tested) is given as “faster rate of neutrophil recovery to higher neutrophil levels”. In experiment [2], the “hematopoiesis in spleen (CFU/spleen: CFU-E, BFU-E, CFU-GM, CFU-GEMM)” value is listed as “stimulated hematopoiesis for all progenitor colony types tested”. The “production of G-CSF by cultured stromal cells” value in experiment [3] is listed as “stimulates production of G-CSF”. The “differentiation of committed progenitor cells (CFU-E, CFU-GM, CFU-GEMM, BFU-E colonies)” value in experiment [4] (human bone marrow CD34+ cells, 4 h pre-incubation, 14 days in methylcellulose with sub-optimal growth factors) is listed as “did not stimulate differentiation”. Besides, the “generation of CFUs in the 2 week semi-solid assay” value in experiment [4] (human bone marrow, apheresed peripheral blood or umbilical cord blood cells) is recorded as “did not stimulate the generation of CFUs”. Also, the “number of 4 and 5 week LTC-ICs” value in experiment [5] (CD34+ cells from apheresed peripheral blood or umbilical cord blood, 30 days on irradiated stromal cells) was “increased”. Moreover, the “growth of very early progenitor cells in LTC assays” value in experiment [5] (all three cell sources (bone marrow, apheresed peripheral blood, umbilical cord blood), LTC-ICs at 4, 5 and 6 weeks) is “significantly increased”. Further, the “number of clonogeneic progenitors able to form colonies in semi-solid medium” value in experiment [5] (human bone marrow culture, 4 week LTC assay) was “increased, in a dose dependent manner”.

B1: G-CSF: granulocyte colony stimulating factor, currently used to accelerate neutrophil recovery in cancer patients undergoing chemotherapy (protein, UniProt P09919 31-207, looked up)
Granulocyte …: TPLGPASSLPQSFLLKCLEQVRKIQGDGAALQEKLVSECATYKLCHPEELVLLGHSLGIPWAPLSSCPSQALQLAGCLSQLHSGLFLYQGLLQALEGISPELGPTLDTLQLDVADFATTIWQQMEELGMAPALQPTQGAMPAFASAFQRRAGGVLVASHLQSFLEVSYRVLRHLAQP
On to B1, for which the “ANC after treatment was stopped” value in experiment [1] (0.04 μg/b.i.d. s.c. for 5 days) is recorded as “decreased to normal counts by Day 13”. Further, the “neutrophil regeneration during the treatment period, PT-100 versus G-CSF” value in experiment [1] (0.04 μg/b.i.d. subcutaneous injections, 5 consecutive days from Day 3) is recorded as “stimulated neutrophil regeneration to a similar level”. In experiment [6], the “effect on growth of early human hematopoietic progenitor cells” value is “not affected”. For the same molecule, the “CFU formation in the 2 week semi-solid assay” value in experiment [7] was “stimulate CFU formation”.

Values taken from US7067489B2, “Hematopoietic stimulation” (Point Therapeutics, Inc., priority 1998, dated 2006).
